Experimental findings from patent publication US20250313548A1 (Actio Biosciences, Inc., priority 2023, published 2025) are described below.

Chain of human, KCNT1 (Q5JUK3 whole entry): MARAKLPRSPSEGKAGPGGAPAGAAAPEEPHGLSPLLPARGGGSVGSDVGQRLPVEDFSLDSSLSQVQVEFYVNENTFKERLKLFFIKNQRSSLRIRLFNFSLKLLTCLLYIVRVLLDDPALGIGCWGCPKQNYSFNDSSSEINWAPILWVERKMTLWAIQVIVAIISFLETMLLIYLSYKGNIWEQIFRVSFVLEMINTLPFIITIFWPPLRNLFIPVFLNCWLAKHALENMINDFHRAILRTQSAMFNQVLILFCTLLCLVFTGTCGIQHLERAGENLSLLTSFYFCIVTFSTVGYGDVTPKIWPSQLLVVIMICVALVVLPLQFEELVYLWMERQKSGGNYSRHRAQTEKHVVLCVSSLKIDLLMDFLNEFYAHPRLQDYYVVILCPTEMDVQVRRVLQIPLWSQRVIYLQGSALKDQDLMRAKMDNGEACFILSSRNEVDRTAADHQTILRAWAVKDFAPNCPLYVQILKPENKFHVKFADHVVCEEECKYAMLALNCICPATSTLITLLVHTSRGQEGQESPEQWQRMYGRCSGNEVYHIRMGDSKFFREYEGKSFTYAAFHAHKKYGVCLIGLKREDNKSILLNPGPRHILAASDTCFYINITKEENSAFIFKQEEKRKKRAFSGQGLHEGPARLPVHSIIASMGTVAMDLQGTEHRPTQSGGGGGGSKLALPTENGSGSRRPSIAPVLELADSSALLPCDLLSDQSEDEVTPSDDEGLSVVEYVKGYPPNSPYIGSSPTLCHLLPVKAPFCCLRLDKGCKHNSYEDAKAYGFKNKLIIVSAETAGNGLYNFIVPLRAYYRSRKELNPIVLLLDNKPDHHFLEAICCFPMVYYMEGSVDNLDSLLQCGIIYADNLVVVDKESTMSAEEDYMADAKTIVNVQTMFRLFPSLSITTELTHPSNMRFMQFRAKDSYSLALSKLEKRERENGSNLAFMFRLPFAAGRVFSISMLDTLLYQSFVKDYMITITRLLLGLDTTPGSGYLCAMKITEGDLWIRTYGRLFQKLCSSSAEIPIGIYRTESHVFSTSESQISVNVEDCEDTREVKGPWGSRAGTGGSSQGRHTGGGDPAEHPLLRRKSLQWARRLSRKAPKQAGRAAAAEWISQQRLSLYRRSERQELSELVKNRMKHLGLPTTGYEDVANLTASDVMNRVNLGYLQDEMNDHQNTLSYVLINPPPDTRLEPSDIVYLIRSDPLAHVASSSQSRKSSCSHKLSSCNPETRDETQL

This test concerns the target human, KCNT1 (Homo sapiens (Human), UniProt Q5JUK3). Description: FLIPR Tl/K Flux Assay. The class given is cell-based. To be noted: HEK293 cells stably expressing human KCNT1; Tl+ flux stimulated with EC80 of agonist Loxapine. Summed up: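 HEK293 cells stably expressing human KCNT1 were loaded with FLIPR potassium dye in HEPES/HBSS pH 7.4 with 5 mM probenecid, 1 h at 25 °C, then given test compound for 30 min at 25 °C. Tl+ flux was triggered with chloride-free buffer containing Tl+ and EC80 loxapine and read 160 s. IC50 came from Hill fits of % inhibition.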
A word on the IC50: it is the concentration that inhibits the measured activity by half. Higher therefore signals weaker potency. `CCc1cc(C#N)cc(C(=O)N[C@H]2CCn3nc(-c4ccnc(C(F)(F)F)c4)cc32)c1` [Compound I-200a, (S)-3-Cyano-5-ethyl-N-(2-(2-(trifluoromethyl)pyridin-4-yl)-5,6-dihydro-4H-pyrrolo[1,2-b]pyrazol-4-yl)benzamide] showed an IC50 of under 250 nM.

`Cn1nc(C(F)(F)F)cc1C(=O)N[C@H]1CCCn2nc(-c3ccnc(C4CC4)c3)nc21` [Compound I-201a, (S)—N-(2-(2-Cyclopropylpyridin-4-yl)-5,6,7,8-tetrahydro-[1,2,4]triazolo[1,5-a]pyridin-8-yl)-1-methyl-3-(trifluoromethyl)-1H-pyrazole-5-carboxamide] displayed an IC50 of under 250 nM.

On to `O=C(N[C@H]1CCCn2nc(-c3cc(C(F)(F)F)ncc3F)cc21)c1cnc(C(F)(F)F)cn1` [Compound I-202a, (S)-N-(2-(5-Fluoro-2-(trifluoromethyl)pyridin-4-yl)-4,5,6,7-tetrahydropyrazolo[1,5-a]pyridin-4-yl)-5-(trifluoromethyl)pyrazine-2-carboxamide], for which the half-inhibitory concentration (IC50) is under 250 nM.

Regarding `Cn1nc(C(F)(F)F)nc1C(=O)N[C@H]1CCCn2nc(-c3cc(C(F)(F)F)ncc3F)cc21` [Compound I-203a, (S)-N-(2-(5-Fluoro-2-(trifluoromethyl)pyridin-4-yl)-4,5,6,7-tetrahydropyrazolo[1,5-a]pyridin-4-yl)-1-methyl-3-(trifluoromethyl)-1H-1,2,4-triazole-5-carboxamide], the half-maximal inhibitory concentration (IC50) is under 250 nM.

As to `O=C(N[C@H]1CCCn2nc(-c3cc(C(F)(F)F)ncc3F)cc21)c1cncc(C(F)(F)F)n1` [Compound I-204a, (S)-N-(2-(5-Fluoro-2-(trifluoromethyl)pyridin-4-yl)-4,5,6,7-tetrahydropyrazolo[1,5-a]pyridin-4-yl)-6-(trifluoromethyl)pyrazine-2-carboxamide], the IC50 was under 250 nM.

The compound `Cn1nc(C(F)(F)F)nc1C(=O)N[C@H]1CCn2nc(-c3ccnc(C4CC4)c3)cc21` [Compound I-205a, (S)-N-(2-(2-Cyclopropylpyridin-4-yl)-5,6-dihydro-4H-pyrrolo[1,2-b]pyrazol-4-yl)-1-methyl-3-(trifluoromethyl)-1H-1,2,4-triazole-5-carboxamide] displayed an IC50 of under 250 nM.

As to `Cc1nc(C(=O)N[C@H]2CCn3nc(-c4ccnc(C(C)(F)F)c4)cc32)n(C)n1` [Compound I-206a, (S)-N-(2-(2-(1,1-Difluoroethyl)pyridin-4-yl)-5,6-dihydro-4H-pyrrolo[1,2-b]pyrazol-4-yl)-1,3-dimethyl-1H-1,2,4-triazole-5-carboxamide], the IC50 was over 1000 nM.

`COc1cncc(C(=O)N[C@H]2CCn3nc(-c4ccnc(C(F)(F)F)c4)cc32)n1` [Compound I-207a, (S)-6-Methoxy-N-(2-(2-(trifluoromethyl)pyridin-4-yl)-5,6-dihydro-4H-pyrrolo[1,2-b]pyrazol-4-yl)pyrazine-2-carboxamide] yielded an IC50 of under 250 nM.

As for `O=C(N[C@H]1CCCc2oc(-c3cc(C4CC4)ncc3F)nc21)c1cncc(C(F)(F)F)n1` [Compound I-208a, (S)-N-(2-(2-Cyclopropyl-5-fluoropyridin-4-yl)-4,5,6,7-tetrahydrobenzo[d]oxazol-4-yl)-6-(trifluoromethyl)pyrazine-2-carboxamide], the IC50 is under 250 nM.

Take `Cn1nc(C(F)(F)F)cc1C(=O)N[C@H]1CCCn2nc(-c3cc(C(F)(F)F)ncc3F)cc21` [Compound I-209a, (S)-N-(2-(5-Fluoro-2-(trifluoromethyl)pyridin-4-yl)-4,5,6,7-tetrahydropyrazolo[1,5-a]pyridin-4-yl)-1-methyl-3-(trifluoromethyl)-1H-pyrazole-5-carboxamide]: the IC50 was under 250 nM.

Take `COc1nc(C(=O)N[C@H]2CCn3nc(-c4ccnc(C(F)(F)F)c4)cc32)n(C)n1` [Compound I-210a, (S)-3-Methoxy-1-methyl-N-(2-(2-(trifluoromethyl)pyridin-4-yl)-5,6-dihydro-4H-pyrrolo[1,2-b]pyrazol-4-yl)-1H-1,2,4-triazole-5-carboxamide]: the IC50 is under 250 nM.

`COc1cc(-c2nc3c(o2)CCC[C@@H]3NC(=O)c2cncc(C(F)(F)F)n2)ccn1` [Compound I-211a, (S)-N-(2-(2-Methoxypyridin-4-yl)-4,5,6,7-tetrahydrobenzo[d]oxazol-4-yl)-6-(trifluoromethyl)pyrazine-2-carboxamide] came in with an IC50 of under 250 nM.

Regarding `COc1cc(-c2cc3n(n2)CCCC[C@@H]3NC(=O)c2cc(C(F)(F)F)nn2C)c(F)cn1` [Compound I-212a, (S)-N-(2-(5-Fluoro-2-methoxypyridin-4-yl)-5,6,7,8-tetrahydro-4H-pyrazolo[1,5-a]azepin-4-yl)-1-methyl-3-(trifluoromethyl)-1H-pyrazole-5-carboxamide], the IC50 is under 250 nM.

With `O=C(N[C@H]1CCCn2nc(-c3ccnc(C(F)(F)F)c3)cc21)c1ccnc(OC(F)(F)F)c1` [Compound I-213a, (S)-2-(Trifluoromethoxy)-N-(2-(2-(trifluoromethyl)pyridin-4-yl)-4,5,6,7-tetrahydropyrazolo[1,5-a]pyridin-4-yl)isonicotinamide], the IC50 is under 250 nM.

The compound `COc1cc(C(=O)N[C@H]2CCCn3nc(-c4ccnc(C(F)(F)F)c4)nc32)ccn1` [Compound I-214a, (S)-2-Methoxy-N-(2-(2-(trifluoromethyl)pyridin-4-yl)-5,6,7,8-tetrahydro-[1,2,4]triazolo[1,5-a]pyridin-8-yl)isonicotinamide] registered an IC50 of under 250 nM.

Compound `O=C(N[C@H]1CCCn2nc(-c3ccnc(C(F)(F)F)c3)nc21)c1cncc(C(F)(F)F)n1` [Compound I-215a, (S)-6-(Trifluoromethyl)-N-(2-(2-(trifluoromethyl)pyridin-4-yl)-5,6,7,8-tetrahydro-[1,2,4]triazolo[1,5-a]pyridin-8-yl)pyrazine-2-carboxamide] yielded an IC50 of under 250 nM.

`Cc1nc(C(F)(F)F)oc1C(=O)N[C@H]1CCCn2nc(-c3ccnc(C(F)(F)F)c3)nc21` [Compound I-216a, (S)-4-Methyl-2-(trifluoromethyl)-N-(2-(2-(trifluoromethyl)pyridin-4-yl)-5,6,7,8-tetrahydro-[1,2,4]triazolo[1,5-a]pyridin-8-yl)oxazole-5-carboxamide] yielded an IC50 of under 250 nM.

For `Cn1nc(C(F)(F)F)cc1C(=O)N[C@H]1CCCc2oc(-c3cc(C4CC4)ncc3F)nc21` [Compound I-217a, (S)-N-(2-(2-Cyclopropyl-5-fluoropyridin-4-yl)-4,5,6,7-tetrahydrobenzo[d]oxazol-4-yl)-1-methyl-3-(trifluoromethyl)-1H-pyrazole-5-carboxamide], the IC50 was under 250 nM.

Take `Cc1nc(C(=O)N[C@H]2CCn3nc(-c4ccnc(C5CC5)c4)cc32)n(C)n1` [Compound I-218a, (S)-N-(2-(2-Cyclopropylpyridin-4-yl)-5,6-dihydro-4H-pyrrolo[1,2-b]pyrazol-4-yl)-1,3-dimethyl-1H-1,2,4-triazole-5-carboxamide]: the IC50 fell in the range of 250 to 500 nM.

`Cn1nc(C(F)(F)F)cc1C(=O)N[C@H]1CC(C)(C)Cn2nc(-c3ccnc(C(F)(F)F)c3)cc21` [Compound I-219a, (S)—N-(6,6-Dimethyl-2-(2-(trifluoromethyl)pyridin-4-yl)-4,5,6,7-tetrahydropyrazolo[1,5-a]pyridin-4-yl)-1-methyl-3-(trifluoromethyl)-1H-pyrazole-5-carboxamide]: the IC50 was over 1000 nM.
